{"source": "patent EP1824830B1", "about": "“RADIOLABELLED QUINOLINE-BASED LIGANDS FOR THE 5-HT6 RECEPTOR FUNCTIONALITY” (GLAXO GROUP LIMITED, priority 2004, dated 2006)", "key": {"[1]": {"biological_target": "T1, human recombinant 5-HT6 receptor (Homo sapiens, UniProt P50406)", "T1 construct": "expressed in transfected cells; host or cells: HeLa", "T1 sequence (P50406 whole entry)": "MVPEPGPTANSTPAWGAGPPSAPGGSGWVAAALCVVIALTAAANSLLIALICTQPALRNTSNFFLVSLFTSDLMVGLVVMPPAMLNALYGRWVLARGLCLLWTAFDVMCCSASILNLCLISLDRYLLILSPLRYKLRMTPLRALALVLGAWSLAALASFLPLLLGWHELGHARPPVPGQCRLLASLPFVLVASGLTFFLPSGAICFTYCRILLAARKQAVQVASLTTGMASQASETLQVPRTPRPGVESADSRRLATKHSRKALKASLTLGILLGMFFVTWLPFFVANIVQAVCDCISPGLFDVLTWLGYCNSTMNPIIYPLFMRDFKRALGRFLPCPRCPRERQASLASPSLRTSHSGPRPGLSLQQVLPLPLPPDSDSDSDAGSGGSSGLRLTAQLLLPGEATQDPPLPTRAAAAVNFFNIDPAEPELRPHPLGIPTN", "test": "Radioligand binding, competition studies with [^3H]LSD", "from_the_text": "(§1) Table 1. Binding Profile (pKi values) of GSK215083"}, "5-HT1A": {"biological_target": "T2, 5-HT1A (Homo sapiens, UniProt P08908)", "T2 sequence (P08908 1-422)": "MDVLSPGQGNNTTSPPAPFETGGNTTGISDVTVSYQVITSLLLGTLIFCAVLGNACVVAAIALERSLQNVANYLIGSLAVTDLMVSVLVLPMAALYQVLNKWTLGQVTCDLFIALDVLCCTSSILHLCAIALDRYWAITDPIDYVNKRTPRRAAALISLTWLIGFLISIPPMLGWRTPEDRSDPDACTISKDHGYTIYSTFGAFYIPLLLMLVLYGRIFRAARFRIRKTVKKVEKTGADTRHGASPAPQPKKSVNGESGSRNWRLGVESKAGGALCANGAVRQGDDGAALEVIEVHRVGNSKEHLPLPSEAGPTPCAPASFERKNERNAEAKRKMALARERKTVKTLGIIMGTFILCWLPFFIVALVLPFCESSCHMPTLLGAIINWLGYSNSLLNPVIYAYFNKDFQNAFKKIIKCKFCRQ", "test": "Binding profile", "from_the_text": "as §1"}, "Dopamine D2": {"biological_target": "Dopamine D2 (Homo sapiens, UniProt P14416)", "sequence (P14416 whole entry)": "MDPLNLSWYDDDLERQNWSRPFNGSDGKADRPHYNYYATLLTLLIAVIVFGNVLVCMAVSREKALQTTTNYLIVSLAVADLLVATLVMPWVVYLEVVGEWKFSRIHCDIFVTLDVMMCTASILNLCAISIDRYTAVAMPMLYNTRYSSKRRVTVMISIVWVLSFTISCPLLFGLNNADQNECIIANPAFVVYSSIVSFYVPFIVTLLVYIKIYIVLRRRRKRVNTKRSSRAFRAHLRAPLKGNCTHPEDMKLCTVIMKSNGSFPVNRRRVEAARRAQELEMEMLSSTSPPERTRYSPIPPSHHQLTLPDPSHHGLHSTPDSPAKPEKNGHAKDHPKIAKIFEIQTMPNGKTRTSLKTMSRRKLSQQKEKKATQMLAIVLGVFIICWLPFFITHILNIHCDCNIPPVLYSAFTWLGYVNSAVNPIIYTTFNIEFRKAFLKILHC", "test": "Binding profile", "from_the_text": "as §1"}, "5-HT7": {"biological_target": "5-HT7 (Homo sapiens, UniProt P34969)", "sequence (P34969 whole entry, species assumed)": "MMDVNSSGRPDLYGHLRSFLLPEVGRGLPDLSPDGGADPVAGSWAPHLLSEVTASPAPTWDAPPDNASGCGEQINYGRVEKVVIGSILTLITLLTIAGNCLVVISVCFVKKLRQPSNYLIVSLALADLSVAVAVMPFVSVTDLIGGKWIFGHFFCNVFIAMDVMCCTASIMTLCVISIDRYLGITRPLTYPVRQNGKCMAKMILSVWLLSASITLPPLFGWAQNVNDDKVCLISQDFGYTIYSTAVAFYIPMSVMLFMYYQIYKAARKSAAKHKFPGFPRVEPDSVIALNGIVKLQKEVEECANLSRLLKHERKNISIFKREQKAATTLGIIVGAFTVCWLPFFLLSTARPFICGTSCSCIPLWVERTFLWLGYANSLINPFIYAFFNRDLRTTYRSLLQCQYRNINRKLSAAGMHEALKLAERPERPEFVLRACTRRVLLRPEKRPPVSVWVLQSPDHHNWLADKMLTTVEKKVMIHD", "test": "Binding profile", "from_the_text": "as §1"}, "5-HT2B": {"biological_target": "5-HT2B (Homo sapiens, UniProt P41595)", "sequence (P41595 whole entry, species assumed)": "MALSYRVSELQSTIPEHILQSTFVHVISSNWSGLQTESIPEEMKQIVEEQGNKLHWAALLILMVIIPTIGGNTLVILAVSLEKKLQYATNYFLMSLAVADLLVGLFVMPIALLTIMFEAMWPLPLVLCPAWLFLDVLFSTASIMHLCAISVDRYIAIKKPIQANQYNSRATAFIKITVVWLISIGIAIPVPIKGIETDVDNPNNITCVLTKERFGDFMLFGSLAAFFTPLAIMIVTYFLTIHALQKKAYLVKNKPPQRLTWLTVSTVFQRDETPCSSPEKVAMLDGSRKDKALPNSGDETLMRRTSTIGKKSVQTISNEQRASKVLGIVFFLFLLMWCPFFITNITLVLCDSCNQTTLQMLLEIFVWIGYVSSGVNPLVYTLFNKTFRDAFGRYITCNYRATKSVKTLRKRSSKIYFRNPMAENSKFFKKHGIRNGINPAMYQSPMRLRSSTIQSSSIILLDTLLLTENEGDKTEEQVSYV", "test": "Binding profile", "from_the_text": "as §1"}, "α1B adrenoreceptor": {"biological_target": "T3, α1B adrenoreceptor (Homo sapiens, UniProt P35368)", "T3 sequence (P35368 1-520)": "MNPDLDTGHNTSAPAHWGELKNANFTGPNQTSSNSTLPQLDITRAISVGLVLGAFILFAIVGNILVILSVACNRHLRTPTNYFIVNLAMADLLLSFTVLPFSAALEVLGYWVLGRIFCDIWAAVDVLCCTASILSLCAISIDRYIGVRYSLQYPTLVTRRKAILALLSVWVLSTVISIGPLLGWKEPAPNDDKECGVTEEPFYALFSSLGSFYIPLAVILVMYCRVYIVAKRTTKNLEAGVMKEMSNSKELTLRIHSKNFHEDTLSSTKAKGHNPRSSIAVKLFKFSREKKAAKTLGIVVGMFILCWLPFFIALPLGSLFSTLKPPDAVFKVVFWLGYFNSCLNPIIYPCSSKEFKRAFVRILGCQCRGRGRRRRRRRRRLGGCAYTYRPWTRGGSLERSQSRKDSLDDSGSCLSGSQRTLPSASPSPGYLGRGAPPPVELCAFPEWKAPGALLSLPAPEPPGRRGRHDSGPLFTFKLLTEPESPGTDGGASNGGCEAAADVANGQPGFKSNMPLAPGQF", "test": "Binding profile", "from_the_text": "as §1"}, "5-HT1B": {"biological_target": "5-HT1B (Homo sapiens, UniProt P28222)", "sequence (P28222 whole entry, species assumed)": "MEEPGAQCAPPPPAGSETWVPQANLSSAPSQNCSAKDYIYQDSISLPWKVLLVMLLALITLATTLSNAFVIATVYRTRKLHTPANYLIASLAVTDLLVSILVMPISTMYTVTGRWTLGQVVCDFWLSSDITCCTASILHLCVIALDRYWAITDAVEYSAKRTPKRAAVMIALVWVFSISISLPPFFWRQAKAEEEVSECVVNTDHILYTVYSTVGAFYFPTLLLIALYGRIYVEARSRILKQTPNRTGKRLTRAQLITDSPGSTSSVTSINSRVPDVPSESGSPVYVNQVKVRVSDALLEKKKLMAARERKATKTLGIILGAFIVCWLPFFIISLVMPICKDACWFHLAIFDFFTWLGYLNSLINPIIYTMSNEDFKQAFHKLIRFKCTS", "test": "Binding profile", "from_the_text": "as §1"}, "5-HT2C": {"biological_target": "T4, 5-HT2C (Homo sapiens, UniProt P28335)", "T4 sequence (P28335 33-458)": "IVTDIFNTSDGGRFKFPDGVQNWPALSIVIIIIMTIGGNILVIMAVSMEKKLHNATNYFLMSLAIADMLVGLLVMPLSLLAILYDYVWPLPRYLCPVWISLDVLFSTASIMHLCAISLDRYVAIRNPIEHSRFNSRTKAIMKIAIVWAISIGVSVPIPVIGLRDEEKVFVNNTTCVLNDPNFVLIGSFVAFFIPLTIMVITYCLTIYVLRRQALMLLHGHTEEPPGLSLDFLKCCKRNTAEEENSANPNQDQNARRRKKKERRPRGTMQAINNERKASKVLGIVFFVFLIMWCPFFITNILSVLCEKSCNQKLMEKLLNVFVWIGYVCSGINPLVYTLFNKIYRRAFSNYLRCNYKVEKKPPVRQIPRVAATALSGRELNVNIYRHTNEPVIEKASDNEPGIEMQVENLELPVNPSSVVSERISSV", "test": "Binding profile", "from_the_text": "as §1"}, "5-HT1D": {"biological_target": "5-HT1D (Homo sapiens, UniProt P28221)", "sequence (P28221 whole entry, species assumed)": "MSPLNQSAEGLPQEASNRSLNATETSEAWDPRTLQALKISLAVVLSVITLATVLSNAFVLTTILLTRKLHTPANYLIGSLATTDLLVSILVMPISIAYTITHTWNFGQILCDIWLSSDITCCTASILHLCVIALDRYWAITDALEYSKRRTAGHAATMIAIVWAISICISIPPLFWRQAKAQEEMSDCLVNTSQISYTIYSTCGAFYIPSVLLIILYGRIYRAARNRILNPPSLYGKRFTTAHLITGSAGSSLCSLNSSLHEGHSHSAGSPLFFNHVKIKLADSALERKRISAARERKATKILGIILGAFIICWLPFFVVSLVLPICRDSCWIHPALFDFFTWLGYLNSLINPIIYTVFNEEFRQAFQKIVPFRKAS", "test": "Binding profile", "from_the_text": "as §1"}, "Dopamine D3": {"biological_target": "Dopamine D3 (Homo sapiens, UniProt P35462)", "sequence (P35462 whole entry)": "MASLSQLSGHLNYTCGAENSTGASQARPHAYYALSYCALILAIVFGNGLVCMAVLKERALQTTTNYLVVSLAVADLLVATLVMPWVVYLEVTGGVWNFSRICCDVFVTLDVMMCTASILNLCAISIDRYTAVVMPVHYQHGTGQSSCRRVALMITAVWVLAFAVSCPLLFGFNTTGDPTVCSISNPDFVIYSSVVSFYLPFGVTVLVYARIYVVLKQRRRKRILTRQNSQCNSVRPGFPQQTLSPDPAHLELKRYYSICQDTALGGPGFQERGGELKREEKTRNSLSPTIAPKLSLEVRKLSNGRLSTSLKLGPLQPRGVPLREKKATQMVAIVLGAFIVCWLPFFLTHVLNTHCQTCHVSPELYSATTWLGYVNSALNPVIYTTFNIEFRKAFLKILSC", "test": "Binding profile", "from_the_text": "as §1"}, "5-HT6 receptors [2]": {"test_system": "5-HT6 receptors", "test": "PET imaging, saturation of 5-HT6 receptors in the brain", "description": "Yorkshire/Danish Landrace porcines (- 40 Kg; n=4) were housed singly in thermostatically controlled (20 °C) and naturally illuminated stalls. The pigs were provided with Soavl® chow (DLG, Denmark) and water ad libitum by trough. Animals were fasted for 24 hours prior to PET examination, with free access to water during this interval. Animals were anaesthetised by induction with ketamine and midazolam (both intramuscular and intravenous (i.v.)) and maintained in deep anaesthesia using isoflurane (1 - 2 %; Abbott, Denmark). The left femoral artery and vein of each animal were surgically cannulated using catheters (Avanti® size 4F-7F). The femoral artery for blood sampling and blood pressure (BP) recordings and the femoral vein for administration of radiolabelled and non-labelled agents. Animals were placed supine in a Siemens ECAT EXACT HR tomograph, with the head immobilised in a custom-made holding device. During the study, blood pH, pCO2 and pO2 levels were monitored and maintained within the normal physiological range. In addition, BP and heart rate were recorded throughout the study. At the end of each study day, the animal was terminated via an intravenous dose of sodium pentobarbital (20 ml). [^11C]GSK215083 was administered intravenously in the femoral vein as a 1 minute bolus injection. PET scanning and arterial blood sampling was commenced upon start of the radioligand administration.\nFour sequential high specific activity iv radioligand ([^11C]GSK215083) administrations were performed in same animal, same day. Following a baseline scan, [^11C] GSK215083 was coadministered with escalating dose of unlabelled GSK215083 (0.005, 0.05 and 0.5mg/kg). [^15O]CO and [^15O]H2O were administered pre and post administration of GSK215083 to monitor and to correct for changes in cerebral blood volume and changes in cerebral blood flow."}, "5-HT2A": {"biological_target": "5-HT2A (Homo sapiens, UniProt P28223)", "sequence (P28223 whole entry, species assumed)": "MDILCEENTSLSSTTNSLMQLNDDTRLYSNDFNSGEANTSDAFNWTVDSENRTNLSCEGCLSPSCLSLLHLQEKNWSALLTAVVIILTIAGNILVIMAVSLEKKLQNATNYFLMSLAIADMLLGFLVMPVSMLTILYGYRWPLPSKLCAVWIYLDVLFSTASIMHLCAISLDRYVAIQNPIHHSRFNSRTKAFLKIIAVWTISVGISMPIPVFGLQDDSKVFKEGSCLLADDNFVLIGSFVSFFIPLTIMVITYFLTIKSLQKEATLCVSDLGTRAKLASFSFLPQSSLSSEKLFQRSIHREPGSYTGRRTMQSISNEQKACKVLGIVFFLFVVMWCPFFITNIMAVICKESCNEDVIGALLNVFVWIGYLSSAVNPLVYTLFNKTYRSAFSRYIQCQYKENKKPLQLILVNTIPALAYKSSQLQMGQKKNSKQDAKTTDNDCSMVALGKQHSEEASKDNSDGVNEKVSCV", "test": "Binding profile"}, "5-HT6 receptors [3]": {"test_system": "5-HT6 receptors", "conditions": "PET", "description": "Yorkshire/Danish Landrace porcines (- 40 Kg; n=4) were housed singly in thermostatically controlled (20 °C) and naturally illuminated stalls. The pigs were provided with Soavl® chow (DLG, Denmark) and water ad libitum by trough. Animals were fasted for 24 hours prior to PET examination, with free access to water during this interval. Animals were anaesthetised by induction with ketamine and midazolam (both intramuscular and intravenous (i.v.)) and maintained in deep anaesthesia using isoflurane (1 - 2 %; Abbott, Denmark). The left femoral artery and vein of each animal were surgically cannulated using catheters (Avanti® size 4F-7F). The femoral artery for blood sampling and blood pressure (BP) recordings and the femoral vein for administration of radiolabelled and non-labelled agents. Animals were placed supine in a Siemens ECAT EXACT HR tomograph, with the head immobilised in a custom-made holding device. During the study, blood pH, pCO2 and pO2 levels were monitored and maintained within the normal physiological range. In addition, BP and heart rate were recorded throughout the study. At the end of each study day, the animal was terminated via an intravenous dose of sodium pentobarbital (20 ml). […] PET scanning and arterial blood sampling was commenced upon start of the radioligand administration."}, "[4]": {"conditions": "60min post administration of 0.5mg/kg GSK215083 with [^11C]GSK215083"}, "[5]": {"conditions": "60 min post coinjection of [^11C]GSK215083 with 0.005mg/kg of GSK215083"}, "[6]": {"conditions": "[^11C]GSK215083 coadministered with 0.05mg/kg of GSK215083"}, "[7]": {"conditions": "baseline scan, 60 min post injection of [^11C]GSK215083"}}, "data": [{"compound": "CN1CCN(c2cccc3cc(S(=O)(=O)c4cccc(F)c4)cnc23)CC1", "note": "[GSK215083, 3-[(3-fluorophenyl)sulfonyl]-8-(4-methyl-1-piperazinyl)quinoline]", "values": [{"measurement": "Ki", "setting": "[1]; human recombinant 5-HT6 receptor stably expressed in the HeLa cell line, [^3H]LSD as radioligand", "value": 0.151, "unit": "nM"}, {"measurement": "selectivity for the human 5-HT6 receptor", "setting": "[1]; over other receptors screened to date", "value": "selective for the human 5-HT6 receptor over other receptors screened to date"}, {"measurement": "Ki", "setting": "5-HT1A", "value": "> 7080", "unit": "nM"}, {"measurement": "Ki", "setting": "Dopamine D2", "value": 912, "unit": "nM"}, {"measurement": "Ki", "setting": "5-HT7", "value": "> 10000", "unit": "nM"}, {"measurement": "Ki", "setting": "5-HT2B", "value": 9.12, "unit": "nM"}, {"measurement": "Ki", "setting": "α1B adrenoreceptor", "value": 977, "unit": "nM"}, {"measurement": "Ki", "setting": "5-HT1B", "value": 105, "unit": "nM"}, {"measurement": "Ki", "setting": "5-HT2C", "value": 17.8, "unit": "nM"}, {"measurement": "Ki", "setting": "5-HT1D", "value": 69.2, "unit": "nM"}, {"measurement": "Ki", "setting": "Dopamine D3", "value": 977, "unit": "nM"}, {"measurement": "cortex to cerebellum ratio", "setting": "5-HT6 receptors [2]; [4]", "value": "1 to 1"}, {"measurement": "striatum to cerebellum ratio", "setting": "5-HT6 receptors [2]; [4]", "value": "1.1 to 1"}, {"measurement": "cortex to cerebellum ratio", "setting": "5-HT6 receptors [2]; [5]", "value": "1.2 to 1"}, {"measurement": "striatum to cerebellum ratio", "setting": "5-HT6 receptors [2]; [5]", "value": "1.5 to 1"}, {"measurement": "cortex to cerebellum ratio", "setting": "5-HT6 receptors [2]; [6]", "value": "1.1 to 1"}, {"measurement": "striatum to cerebellum ratio", "setting": "5-HT6 receptors [2]; [6]", "value": "1.3 to 1"}, {"measurement": "Ki", "setting": "5-HT2A", "value": 0.724, "unit": "nM"}]}, {"compound": "[11CH3]N1CCN(c2cccc3cc(S(=O)(=O)c4cccc(F)c4)cnc23)CC1", "note": "[[^11C]GSK215083, [^11C-N-methyl]-3-(3-Fluoro-benzenesulfonyl)-8-(4-methyl-piperazin-1-yl)-quinoline]", "values": [{"measurement": "concentration in cerebellum", "setting": "5-HT6 receptors [3]; pig brain", "value": "low"}, {"measurement": "rank order of regional brain concentrations", "setting": "5-HT6 receptors [3]; pig brain", "value": "striatum>cortical regions>cerebellum"}, {"measurement": "time of peak regional tissue concentrations post injection", "setting": "5-HT6 receptors [3]; pig brain, intravenous 1 minute bolus", "value": "approximately 20 min"}, {"measurement": "brain entry", "setting": "5-HT6 receptors [3]; pig, intravenous 1 minute bolus", "value": "readily enters the brain"}, {"measurement": "cortex to cerebellum ratio", "setting": "5-HT6 receptors [2]; [7]", "value": "1.5 to 1"}, {"measurement": "striatum to cerebellum ratio", "setting": "5-HT6 receptors [2]; [7]", "value": "2 to 1"}]}]}
